Test results taken from US9322066B2, “Predictors for cancer treatment” (priority 2011, dated 2016).

Tested on: relapsed or refractory, rituximab-naive or -sensitive follicular B-cell NHL
Assay: Time to next anti-lymphoma therapy, Vc-R vs rituximab study, by biomarker
Format: in vivo, human
Set-up: Median, Time to Next Anti-Lymphoma Therapy / Time to Next Anti-Lymphoma Therapy, Median: unit not given here
Excerpt: Non-Hodgkin lymphoma (NHL) encompasses several unique malignant lymphoid disease entities that vary in clinical behavior, morphologic appearance, immunologic, and molecular phenotype. […] A randomized, open-label, active-controlled, multicenter, multinational, prospective study to compare the efficacy and safety of the combination of bortezomib and rituximab (Vc-R) to single-agent rituximab in subjects who have relapsed or refractory, rituximab-naive or -sensitive follicular B-cell NHL was performed.
Subjects were centrally randomized to Treatment Groups A (Vc-R) or B (rituximab) in a 1:1 ratio taking into account the following stratification factors: • Follicular Lymphoma International Prognostic Index (FLIPI) score (low [0 or 1 factor], intermediate [2 factors], high [≧3 factors]); • Prior rituximab therapy (yes, no); • Time since last dose of anti-lymphoma therapy (≦1 year, >1 year); • Region (United States/Canada, European Union, Rest of World).
The following clinical endpoints were included in the analysis within each treatment group and an overall comparison was made with the biomarker-related endpoints: Progression-free survival, defined as the interval between the date of randomization and the date of progressive disease (PD) or death, whichever is first reported in the ITT population; overall survival; overall response rate (complete response [CR]+CR unconfirmed [CRu]+partial response [PR]); overall CR rate (CR+CRu); duration of response; time to next anti-lymphoma therapy; and treatment free interval.

[1] = PSMB1/A171S: G/G, >1 year since last anti-lymphoma treatment
[2] = PSMB1/A171S: G/G, Ann Arbor Stage IV
[3] = PSMB1/A171S: G/G, European Union
[4] = PSMB1/A171S: G/G, High Tumor Burden
[5] = PSMB1/A171S: G/G, ≦65 years old
[6] = PSMB1/I208N: T/T, >1 year since last anti-lymphoma treatment
[7] = PSMB1/I208N: T/T, Ann Arbor Stage IV
[8] = PSMB1/I208N: T/T, European Union
[9] = PSMB1/I208N: T/T, High Tumor Burden
[10] = PSMB1/I208N: T/T, ≦65 years old
[11] = PSMB1/P11A: C/G, European Union
[12] = PSMB1/P11A: C/G, High Tumor Burden
[13] = PSMB1/P11A: G/G, >1 year since last anti-lymphoma treatment
[14] = PSMB1/P193L: C/C, >1 year since last anti-lymphoma treatment
[15] = PSMB1/P193L: C/C, Ann Arbor Stage IV
[16] = PSMB1/P193L: C/C, European Union
[17] = PSMB1/P193L: C/C, High Tumor Burden
[18] = PSMB1/P193L: C/C, ≦65 years old
[19] = PSMB2/E49X: G/G, >1 year since last anti-lymphoma treatment
[20] = PSMB2/E49X: G/G, Ann Arbor Stage IV
[21] = PSMB2/E49X: G/G, European Union
[22] = PSMB2/E49X: G/G, High Tumor Burden
[23] = PSMB2/G187V: G/G, >1 year since last anti-lymphoma treatment
[24] = PSMB2/G187V: G/G, Ann Arbor Stage IV
[25] = PSMB2/G187V: G/G, European Union
[26] = PSMB2/G187V: G/G, High Tumor Burden
[27] = PSMB2/G187V: G/G, ≦65 years old
[28] = PSMB2/L159F: C/C, >1 year since last anti-lymphoma treatment
[29] = PSMB2/L159F: C/C, Ann Arbor Stage IV
[30] = PSMB2/L159F: C/C, European Union
[31] = PSMB2/L159F: C/C, High Tumor Burden
[32] = PSMB2/L159F: C/C, ≦65 years old
[33] = PSMB5/L206M: C/C, >1 year since last anti-lymphoma treatment
[34] = PSMB5/L206M: C/C, Ann Arbor Stage IV

rituximab was tested, and the “Median, Time to Next Anti-Lymphoma Therapy” value (P65 INTENSITY CYTOPLASMIC SIGNAL: ≧2+, ≦65 years old, IRC Review) was 484, the “Time to Next Anti-Lymphoma Therapy, Evt/N” value (“Time … Evt/N” below) [1] was 98/165 and the “Time to Next Anti-Lymphoma Therapy, Median” value [1] was 688. For the same substance, the “Time … Evt/N” value [2] was 86/127, the “Time to Next Anti-Lymphoma Therapy, Median” value [2] was 457 and the “Time … Evt/N” value [3] was 75/119. The “Time to Next Anti-Lymphoma Therapy, Median” value [3] was 675, the “Time … Evt/N” value [4] was 108/147 and the “Time to Next Anti-Lymphoma Therapy, Median” value [4] was 396. The “Time … Evt/N” value [5] was 130/198, the “Time to Next Anti-Lymphoma Therapy, Median” value [5] was 489 and the “Time … Evt/N” value [6] was 98/165. The “Time to Next Anti-Lymphoma Therapy, Median” value [6] was 688, the “Time … Evt/N” value [7] was 86/127 and the “Time to Next Anti-Lymphoma Therapy, Median” value [7] was 457. The “Time … Evt/N” value [8] was 75/119, the “Time to Next Anti-Lymphoma Therapy, Median” value [8] was 675 and the “Time … Evt/N” value [9] was 108/147. The “Time to Next Anti-Lymphoma Therapy, Median” value [9] was 396, the “Time … Evt/N” value (PSMB1/I208N: T/T, No Subgroup) was 173/276 and the “Time to Next Anti-Lymphoma Therapy, Median” value (PSMB1/I208N: T/T, No Subgroup) was 546. The “Time … Evt/N” value [10] was 130/198, the “Time to Next Anti-Lymphoma Therapy, Median” value [10] was 489 and the “Time … Evt/N” value [11] was 34/49. For the same substance, the “Time to Next Anti-Lymphoma Therapy, Median” value [11] was 462, the “Time … Evt/N” value (PSMB1/P11A: C/G, Female) was 42/75 and the “Time to Next Anti-Lymphoma Therapy, Median” value (PSMB1/P11A: C/G, Female) was 546. The “Time … Evt/N” value [12] was 49/72, the “Time to Next Anti-Lymphoma Therapy, Median” value [12] was 358 and the “Time … Evt/N” value (PSMB1/P11A: C/G, No Subgroup) was 78/127. The “Time to Next Anti-Lymphoma Therapy, Median” value (PSMB1/P11A: C/G, No Subgroup) was 550, the “Time … Evt/N” value (PSMB1/P11A: C/G, Other) was 2/3 and the “Time to Next Anti-Lymphoma Therapy, Median” value (PSMB1/P11A: C/G, Other) was 164. The “Time … Evt/N” value (PSMB1/P11A: C/G, White) was 67/111, the “Time to Next Anti-Lymphoma Therapy, Median” value (PSMB1/P11A: C/G, White) was 581 and the “Time … Evt/N” value (PSMB1/P11A: C/G, ≦65 years old) was 63/96. The “Time to Next Anti-Lymphoma Therapy, Median” value (PSMB1/P11A: C/G, ≦65 years old) was 546, the “Time … Evt/N” value [13] was 17/20 and the “Time to Next Anti-Lymphoma Therapy, Median” value [13] was 429. The “Time … Evt/N” value (PSMB1/P11A: G/G, Male) was 17/19, the “Time to Next Anti-Lymphoma Therapy, Median” value (PSMB1/P11A: G/G, Male) was 421 and the “Time … Evt/N” value (PSMB1/P11A: G/G, No Subgroup) was 30/37. For the same substance, the “Time to Next Anti-Lymphoma Therapy, Median” value (PSMB1/P11A: G/G, No Subgroup) was 436, the “Time … Evt/N” value (PSMB1/P11A: G/G, White) was 27/32 and the “Time to Next Anti-Lymphoma Therapy, Median” value (PSMB1/P11A: G/G, White) was 421. For the same substance, the “Time … Evt/N” value (PSMB1/P11A: G/G, ≦65 years old) was 21/25, the “Time to Next Anti-Lymphoma Therapy, Median” value (PSMB1/P11A: G/G, ≦65 years old) was 409 and the “Time … Evt/N” value [14] was 98/165. For the same substance, the “Time to Next Anti-Lymphoma Therapy, Median” value [14] was 688, the “Time … Evt/N” value [15] was 86/127 and the “Time to Next Anti-Lymphoma Therapy, Median” value [15] was 457. For the same substance, the “Time … Evt/N” value [16] was 75/119, the “Time to Next Anti-Lymphoma Therapy, Median” value [16] was 675 and the “Time … Evt/N” value [17] was 108/147. The “Time to Next Anti-Lymphoma Therapy, Median” value [17] was 396, the “Time … Evt/N” value (PSMB1/P193L: C/C, No Subgroup) was 173/276 and the “Time to Next Anti-Lymphoma Therapy, Median” value (PSMB1/P193L: C/C, No Subgroup) was 546. For the same substance, the “Time … Evt/N” value [18] was 130/198, the “Time to Next Anti-Lymphoma Therapy, Median” value [18] was 489 and the “Time … Evt/N” value [19] was 98/165. For the same substance, the “Time to Next Anti-Lymphoma Therapy, Median” value [19] was 688, the “Time … Evt/N” value [20] was 86/127 and the “Time to Next Anti-Lymphoma Therapy, Median” value [20] was 457. For the same substance, the “Time … Evt/N” value [21] was 75/119, the “Time to Next Anti-Lymphoma Therapy, Median” value [21] was 675 and the “Time … Evt/N” value [22] was 108/147. The “Time to Next Anti-Lymphoma Therapy, Median” value [22] was 396, the “Time … Evt/N” value (PSMB2/E49X: G/G, No Subgroup) was 173/276 and the “Time to Next Anti-Lymphoma Therapy, Median” value (PSMB2/E49X: G/G, No Subgroup) was 546. For the same substance, the “Time … Evt/N” value (PSMB2/E49X: G/G, ≦65 years old) was 130/198, the “Time to Next Anti-Lymphoma Therapy, Median” value (PSMB2/E49X: G/G, ≦65 years old) was 489 and the “Time … Evt/N” value [23] was 98/165. For the same substance, the “Time to Next Anti-Lymphoma Therapy, Median” value [23] was 688, the “Time … Evt/N” value [24] was 86/127 and the “Time to Next Anti-Lymphoma Therapy, Median” value [24] was 457. For the same substance, the “Time … Evt/N” value [25] was 75/119, the “Time to Next Anti-Lymphoma Therapy, Median” value [25] was 675 and the “Time … Evt/N” value [26] was 108/147. The “Time to Next Anti-Lymphoma Therapy, Median” value [26] was 396, the “Time … Evt/N” value (PSMB2/G187V: G/G, No Subgroup) was 173/276 and the “Time to Next Anti-Lymphoma Therapy, Median” value (PSMB2/G187V: G/G, No Subgroup) was 546. For the same substance, the “Time … Evt/N” value [27] was 130/198, the “Time to Next Anti-Lymphoma Therapy, Median” value [27] was 489 and the “Time … Evt/N” value [28] was 98/165. The “Time to Next Anti-Lymphoma Therapy, Median” value [28] was 688, the “Time … Evt/N” value [29] was 86/127 and the “Time to Next Anti-Lymphoma Therapy, Median” value [29] was 457. For the same substance, the “Time … Evt/N” value [30] was 75/119, the “Time to Next Anti-Lymphoma Therapy, Median” value [30] was 675 and the “Time … Evt/N” value [31] was 108/147. For the same substance, the “Time to Next Anti-Lymphoma Therapy, Median” value [31] was 396, the “Time … Evt/N” value (PSMB2/L159F: C/C, No Subgroup) was 173/276 and the “Time to Next Anti-Lymphoma Therapy, Median” value (PSMB2/L159F: C/C, No Subgroup) was 546. The “Time … Evt/N” value [32] was 130/198, the “Time to Next Anti-Lymphoma Therapy, Median” value [32] was 489 and the “Time … Evt/N” value [33] was 98/165. The “Time to Next Anti-Lymphoma Therapy, Median” value [33] was 688, the “Time … Evt/N” value [34] was 86/127 and the “Time to Next Anti-Lymphoma Therapy, Median” value [34] was 457. For the same substance, the “Time … Evt/N” value (PSMB5/L206M: C/C, European Union) was 75/119.
